In US6624174B2, “2-amino-nicotinamide derivatives and their use as VEGF-receptor tyrosine kinase inhibitors” (Novartis AG, priority 2000, dated 2003) one finds melting point data, which are given here for 22 molecules.

The term melting point denotes the temperature, or range, at which the solid turns liquid.

SMILES strings stand for the structures.

For the molecule `Cc1c(NC(=O)c2cccnc2NCc2ccncc2)cccc1C(F)(F)F` [Example 21, 2-[(4-Pyridyl)methylamino]-N-[2-methyl-3-(trifluoromethyl)phenyl]-3-pyridinecarboxamide], the melting point was 146 to 147 °C. For `O=C(Nc1cccc(C(F)(F)F)c1)c1cccnc1NCc1cccc(O)c1` [Example 34, 2-[(3-Hydroxyphenyl)methyl]amino-N-[3-(trifluoromethyl)phenyl]-3-pyridinecarboxamide], the melting point fell in the range of 143 to 146 °C. The molecule `COc1ccc(CNc2ncccc2C(=O)Nc2cccc(C(F)(F)F)c2)cn1.Cl.Cl` displayed a melting point of 185 °C.

`CC#Cc1ccc(NC(=O)c2cccnc2NCc2ccncc2)cc1` [Example 12, 2-[(4-Pyridyl)methylamino]-N-[4-(1-propynyl)phenyl]-3-pyridinecarboxamide] returned a melting point of 216 to 221 °C. Regarding `O=C(Nc1ccc2[nH]ncc2c1)c1cccnc1NCc1ccncc1` [Example 13, 2-[(4-Pyridyl)methylamino]-N-(5-indazolyl)-3-pyridinecarboxamide], the melting point lay in the range of 225 to 230 °C. `O=C(Nc1cc(F)cc(C(F)(F)F)c1)c1cccnc1NCc1ccncc1` [Example 7, 2-[(4-Pyridyl)methylamino]-N-[3-fluoro-5-(trifluoromethyl)phenyl]-3-pyridinecarboxamide]: the melting point was determined as 196 °C. `CC#Cc1ccc(NC(=O)c2cccnc2NCc2ccncc2)cc1C(F)(F)F` [Example 31, 2-[(4-Pyridyl)methylamino]-N-[4-propynyl-3-(trifluoromethyl)phenyl]3-pyridinecarboxamide]: the melting point lay within 213 to 217 °C.

`O=C(Nc1ccc(C(F)(F)F)c(C(F)(F)F)c1)c1cccnc1NCc1ccncc1` [Example 6, 2-[(4-Pyridyl)methylamino]-N-[3,4-bis(trifluoromethyl)phenyl]-3-pyridinecarboxamide] came in with a melting point of 194 to 196 °C. Take `O=C(Nc1ccc(Br)c(C(F)(F)F)c1)c1cccnc1NCc1ccncc1` [Example 20, 2-[(4-Pyridyl)methylamino]-N-[4-bromo-3-(trifluoromethyl)phenyl]-3-pyridinecarboxamide]: the melting point was 164 to 165 °C.

`CCCCc1ccc(NC(=O)c2cccnc2NCc2ccncc2)cc1` [Example 10, 2-[(4-Pyridyl)methylamino]-N-[4-(n-butyl)phenyl)3-pyridinecarboxamide] came in with a melting point of 107 to 108 °C. Molecule `CCCCCc1ccc(NC(=O)c2cccnc2NCc2ccncc2)cc1` [Example 11, 2-[(4-Pyridyl)methylamino]-N-[4-(n-pentyl)phenyl]-3-pyridinecarboxamide] registered a melting point of 106 to 107 °C. The molecule `Cc1ccc(C(F)(F)F)cc1NC(=O)c1cccnc1NCc1ccncc1` [Example 22, 2-[(4-Pyridyl)methylamino]-N-[2-methyl-5-(trifluoromethyl)phenyl]-3-pyridinecarboxamide] returned a melting point of 155 to 156 °C. Next, `CCCc1ccc(NC(=O)c2cccnc2NCc2ccc(=O)[nH]c2)cc1C(F)(F)F` [Example 38, 2-[(Pyridin-2(1H)-on-5-yl)methyl]amino-N-[4-propyl-3-(trifluoromethyl)phenyl]-3-pyridinecarboxamide]: 220 to 224 °C; `CCCc1ccc(NC(=O)c2cccnc2NCc2ccncc2)cc1C(F)(F)F` [Example 40, 2-[(4-Pyridyl)methyl]amino-N-[4-(n-propyl)-3-(trifluoromethyl)phenyl]-3-pyridinecarboxamide]: 147 to 149 °C; `CC#Cc1ccc(NC(=O)c2cccnc2NCc2ccc(=O)[nH]c2)cc1C(F)(F)F` [Example 32, 2-[(Pyridin-2(1H)-on-5-yl)methyl]amino-N-[4-propynyl-3-(trifluoromethyl)phenyl]-3-pyridinecarboxamide]: 211 to 218 °C.

`COc1ccc(CNc2ncccc2C(=O)Nc2ccc(Br)c(C(F)(F)F)c2)cn1` [Example 24, 2-[(6-Methoxypyrid-3-yl)methylamino]-N-[4-bromo-3-(trifluoromethyl)phenyl]-3-pyridinecarboxamide] registered a melting point of 123 to 125 °C. Regarding `O=C(Nc1cccc(C(F)(F)F)c1F)c1cccnc1NCc1ccncc1` [Example 19, 2-[(4-Pyridyl)methylamino]-N-[2-fluoro-3-(trifluoromethyl)phenyl]-3-pyridinecarboxamide], the melting point lay within 137 to 140 °C. Consider `CC(C)(C)[C@H]1CC[C@@H](NC(=O)c2cccnc2NCc2ccncc2)CC1` [Example 23, 2-[(4-Pyridyl)methylamino]-N-(cis-4-tert-butyl-cyclohexyl)-3-pyridinecarboxamide], for which the melting point was in the range of 103 to 106 °C. For the molecule `CCCc1ccc(NC(=O)c2cccnc2NCc2ccncc2)cc1` [Example 9, 2-[(4-Pyridyl)methylamino]-N-[4-(n-propyl)phenyl]-3-pyridinecarboxamide], the melting point fell in the range of 147 to 149 °C. With `O=C(Nc1cccc(C(F)(F)F)c1F)c1cccnc1NCc1ccc(=O)[nH]c1` [Example 36, 2-[(Pyridin-2(1H)-on-5-yl)methyl]amino-N-[2-fluoro-3-(trifluoromethyl)phenyl]-3-pyridinecarboxamide], the melting point lay within 219 to 222 °C. Next, `O=C(Nc1cc2ccccc2cn1)c1cccnc1NCc1ccncc1` [Example 14, 2-[(4-Pyridyl)methylamino]-N-(3-isoquinolinyl)-3-pyridinecarboxamide]: 191 to 195 °C; `CC(C)(C)[C@H]1CC[C@H](NC(=O)c2cccnc2NCc2ccncc2)CC1` [Example 8, 2-[(4-Pyridyl)methylamino]-N-(trans-4-tert-butyl-cyclohexyl)-3-pyridinecarboxamide]: 165 to 167 °C.
